Assay: The compound was tested for the inhibition of Carboxypeptidase A

Row | SMILES | Ki
1 | O=C(O)[C@H](Cc1ccccc1)C1CC1 | 803 µM
2 | O=C(O)[C@@H](Cc1ccccc1)C1CC1 | 646 µM
3 | O=C(O)C(Cc1ccccc1)C1CC1 (racemic) | 792 µM
4 | O=C(O)[C@@H](Cc1ccccc1)[C@H]1CN1 | 120 µM
5 | O=C(O)[C@@H](Cc1ccccc1)[C@@H]1CN1 (single isomer, unassigned) | 510 µM
6 | O=C(O)[C@H](Cc1ccccc1)[C@@H]1CN1 | 35 µM
7 | O=C(O)[C@H](Cc1ccccc1)[C@H]1CN1 (single isomer, unassigned) | 230 µM
8 | O=C(O)C(Cc1ccccc1)c1c[nH]cn1 (racemic) | 0.8 µM
